Laboratory results: PMC10295897, “A Novel MDM2-Binding Chalcone Induces Apoptosis of Oral Squamous Cell Carcinoma” (Biomedicines, 2023)

Tests used:
HCT-116 (colon cancer) = assay: MTT cell viability assay, HCT-116; format: cell-based
Description: The viability of SCC cell lines, HT-29, HCT-116, HEP2G and primary human fibroblast cells was evaluated using the MTT assay as in [26]. Briefly, the cells were grown in duplicates in 96-well plates (5 × 10^3 cells/well) until confluence. Then, the medium was removed, fresh medium was added, and the cells were returned to the incubator in the presence of different compounds. DMSO at the same concentrations was used as a 100% cell viability control. After 48 h, the cells were incubated with 5 mg/mL MTT reagent (3-(4,5-dimethyl-2-thiazolyl)-2,5-diphenyl-2-H-tetrazolium bromide) (Sigma-Aldrich Co., St. Louis, MO, USA) for 3.5 h. After that, formazan crystals were dissolved in MTT solvent solution (DMSO/methanol 1:1 v/v), and the absorbance at 560 nm was evaluated using an EPOCH microplate spectrophotometer (BioTek Instruments, Winooski, VT, USA) with the background absorbance at 670 nm subtracted. […]
The data are presented as means ± SD. […] The selectivity index was calculated as SI = IC50 of the compound in normal oral fibroblast cells/IC50 of the same compound for each cancer cell line (SCC-4, SCC-9, SCC-25, HCT-116, HT29 and HEP2G), and the mean was calculated when indicated.

HT29 (adenocarcinoma) = assay: MTT cell viability assay, HT29; format: cell-based
Description: (§1) The viability of SCC cell lines, HT-29, HCT-116, HEP2G and primary human fibroblast cells was evaluated using the MTT assay as in [26]. Briefly, the cells were grown in duplicates in 96-well plates (5 × 10^3 cells/well) until confluence. Then, the medium was removed, fresh medium was added, and the cells were returned to the incubator in the presence of different compounds. DMSO at the same concentrations was used as a 100% cell viability control. After 48 h, the cells were incubated with 5 mg/mL MTT reagent (3-(4,5-dimethyl-2-thiazolyl)-2,5-diphenyl-2-H-tetrazolium bromide) (Sigma-Aldrich Co., St. Louis, MO, USA) for 3.5 h. After that, formazan crystals were dissolved in MTT solvent solution (DMSO/methanol 1:1 v/v), and the absorbance at 560 nm was evaluated using an EPOCH microplate spectrophotometer (BioTek Instruments, Winooski, VT, USA) with the background absorbance at 670 nm subtracted. Each of the six compounds was tested at six or seven different concentrations, ranging from 0.3 µM to 200 µM in cancer cell lines (SCC-4, SCC-9 and SCC-25) and 0.3 µM to 200 µM in primary normal human gingival fibroblasts. Controls (carboplatin, nutlin 3a) were tested at six or seven different concentrations ranging from 0.05 µM to 1000 µM in cancer cells and normal cells, depending on the compound.
(§2) The data are presented as means ± SD. IC values for the MTT assays were obtained by nonlinear regression using the […] 5.0 program (Intuitive Software for Science, San Diego, CA, USA) from at least three independent experiments. A dose–response (inhibitor) vs. response curve using the least squares method was used to determine the IC50, SD, and R^2 of the data. The selectivity index was calculated as SI = IC50 of the compound in normal oral fibroblast cells/IC50 of the same compound for each cancer cell line (SCC-4, SCC-9, SCC-25, HCT-116, HT29 and HEP2G), and the mean was calculated when indicated.

[1] = tested on: Oral Tumor Cells (SCC9, SCC25, SCC4); assay: MTT assay, average over oral tumor cells; format: cell-based, human
Description: as §1, §2

Hemolysis assay = format: cell-based; conditions: human erythrocytes; vs Triton X-100 = 100%; 300 µM (method) / 500 µM (Figure 2)
Description: To determine the surfactant power of substances in biological membranes, a hemolysis assay was performed using human blood approved by the Research Ethics Committee of Universidade Federal Fluminense (CAAE: 43134721.4.0000.5626). Erythrocytes were collected by centrifugation at 1500 rpm for 15 min, washed with PBS (phosphate-buffered saline) supplemented with 10 mM glucose, and counted in an automatic cell counter (Thermo Fisher, Waltham, MA, USA). Erythrocytes were then plated in 96-well plates at a concentration of 4 × 10^8 cells/well in triplicates, and 10 µL of compounds was added at a final concentration of 300 µM in PBS with glucose (final volume 100 µL). In total, 10 µL of PBS was used as a negative control and 10 µL of PBS with 0.1% Triton X-100 as a positive control. Data reading was performed with EPOCH (BioTek Instruments, Winooski, VT, USA) at an absorbance of 540 nm, and the statistical data were generated using the […] Prism 5.0 program (Intuitive Software for Science, San Diego, CA, USA).

C57BL/6 female mice = assay: In vivo acute toxicity study; conditions: for Gross Necropsy: day 14
Description: The acute toxicity study for compound 1f was performed as in the work of Macedo et al., 2019 [24]. The assay was approved by the University Animal Ethics Board under registration number 2699110419, in accordance with Brazilian guidelines and regulations. Dosing and analysis were performed according to OECD guidelines 423 and revised by Parasuraman. The test was performed in 12-week-old C57BL/6 female mice via intraperitoneal injection. Each animal group had n = 3 and received only one intraperitoneal injection (Day 0) of compound 1f dissolved in […] PBS and 3% DMSO. The control group animals received only 3% DMSO in PBS. The first dose of the compound was 25 mg/kg; subsequent dose levels (50 mg/kg and 100 mg/kg) were determined based on the result obtained from the previous dosing. The animals were examined every day, twice a day, for mortality and morbidity for 14 days. At day 14, all animals were anesthetized (ketamine 100 mg/kg and xylazine 10 mg/kg) followed by cervical dislocation. The gross necropsy and histology of the main organs were performed. Body weight and average food consumption were measured every 7 days as an indication of morbidity, and the following signs were assessed: tremors; convulsion; salivation; diarrhea; lethargy; pain signs; increased rear arching; and defect in mobility. The necropsy included an examination of the external characteristics of the carcass; external body orifices; the abdominal, thoracic, and cranial cavities; and organs/tissues—liver, thymus, right kidney, right testicle, heart, and lung.

SCC9 cells = assay: Annexin V-FITC/PI apoptosis flow cytometry; format: cell-based, human; conditions: SCC9, 2 × IC50, 48 h
Description: (§3) Cells of the SCC9 cell line were plated in 6-well plates (5 × 10^5 cells/well), trypsinized 48 h after treatment, labeled using the Annexin V-FITC Apoptosis Detection Kit according to the manufacturer’s protocol (#BMS500FI/300, Invitrogen), and analyzed by FACScalibur flow cytometry as in [35]. Furthermore, 5 × 10^4 SCC-9 cells were plated in a 24-well plate containing 1 mL of DMEM/F12 with 10% FBS per well. CellEvent™ Caspase-3/7 Reagent (#R37111, Invitrogen) was diluted in a culture medium according to the manufacturer’s instructions. […] The cells were analyzed by flow cytometry after 48 h of treatment.

SCC-9 cells = assay: Caspase-3/7 flow cytometry; format: cell-based, human; conditions: SCC9, 2 × IC50, 48 h
Description: as §3

[2] = Solubility observed during in vitro testing; format: physicochemical; conditions: in vitro cytotoxicity testing

In the case of `Cc1cccc(C)c1-n1cc(/C=C/C(=O)c2ccccc2N)nn1` [1f, (E)-1-(2-Aminophenyl)-3-(1-(2,6-dimethylphenyl)-1H-1,2,3-triazol-4-yl)prop-2-en-1-one], the IC50 (HCT-116 (colon cancer); Homo sapiens, HCT-116, 48 h, MTT) is reported as 3.99 µM, the “HCT-116 S.I.” value (HCT-116 (colon cancer); IC50 HGF / IC50 HCT-116) is reported as 7.41 and the IC50 (HT29 (adenocarcinoma); Homo sapiens, HT-29, 48 h, MTT) is reported as 3.92 µM. For the same molecule, the “HT29 S.I.” value (HT29 (adenocarcinoma); IC50 HGF / IC50 HT29) was 7.55, the IC50 ([1]; Homo sapiens, mean of SCC9, SCC25, SCC4) was 4.54 µM and the “Average S.I.” value ([1]; IC50 of normal primary fibroblasts / average IC50 of tumor cells) was 6.51. For the same molecule, the hemolysis at 300 µM (Hemolysis assay) was < 2%, the “Change in body weight” value (C57BL/6 female mice; 25 mg/kg single i.p., 14 days) was “Absent” and the Morbidity (C57BL/6 female mice; 25 mg/kg single i.p., 14 days) was “Absent”. For the same molecule, the “Gross Necropsy” value (C57BL/6 female mice; 25 mg/kg single i.p.) was “No alteration”, the “Change in body weight” value (C57BL/6 female mice; 50 mg/kg single i.p., 14 days) was “Absent” and the Morbidity (C57BL/6 female mice; 50 mg/kg single i.p., 14 days) was “Absent”. For the same molecule, the “Gross Necropsy” value (C57BL/6 female mice; 50 mg/kg single i.p.) was “No alteration”, the “Change in body weight” value (C57BL/6 female mice; 100 mg/kg single i.p., 14 days) was “Absent” and the Morbidity (C57BL/6 female mice; 100 mg/kg single i.p., 14 days) was “Absent”. The “Gross Necropsy” value (C57BL/6 female mice; 100 mg/kg single i.p.) was “No alteration”, the “animal weight compared to control group” value (C57BL/6 female mice; 25, 50, 100 mg/kg i.p., 14 days) was “no significant change in animal weight” and the “food consumption, second week” value (C57BL/6 female mice; all groups (25, 50, 100 mg/kg i.p.)) was “no noticeable difference in food consumption”. For the same molecule, the “food intake, first week” value (C57BL/6 female mice; all treated groups (25, 50, 100 mg/kg i.p.), more significant at 100 mg/kg) was “reduction in food intake”, the phosphatidylserine exposure (SCC9 cells) was 43.0% and the “caspase 3/7 activity” value (SCC-9 cells) was 47.5%. For the same molecule, the “solubility (in words)” value [2] was “highly soluble”.
